Experimental data taken from patent US3987200A, “Method for increasing cardiac contractility” (Eli Lilly and Company, priority 1975, dated 1976).
Counter-ions that a name gives are not always drawn.

Experiments:
[1] = system: dogs; experiment: Cardiac and Blood Pressure Effects in dogs (Table I); format: in vivo; conditions: for Contractile Potency ED50 / Contractile Potency ED100: i.v. infusion; for Blood Pressure Change at Effective dose ED50 / Heart Rate Increase at Effective dose ED50 / Blood Pressure Change at Effective dose ED100 / Heart Rate Increase at Effective dose ED100: i.v.
[2] = LD50 in mice; conditions: mouse, in vivo

| Compound | activity on contractile force (in words) ([1]; Table I data) | pressor activity (in words) ([1]; Table I data) | Contractile Potency ED50 ([1]; hydrochloride) | Contractile Potency ED100 ([1]; hydrochloride) | Blood Pressure Change at Effective dose ED50 ([1]; at ED50, hydrochloride) | Heart Rate Increase at Effective dose ED50 ([1]; at ED50, hydrochloride) | Blood Pressure Change at Effective dose ED100 ([1]; at ED100, hydrochloride) | Heart Rate Increase at Effective dose ED100 ([1]; at ED100, hydrochloride) | Contractile Potency ED50 [1] | Contractile Potency ED100 [1] | Blood Pressure Change at Effective dose ED50 ([1]; at ED50) | Heart Rate Increase at Effective dose ED50 ([1]; at ED50) | Blood Pressure Change at Effective dose ED100 ([1]; at ED100) | Heart Rate Increase at Effective dose ED100 ([1]; at ED100) | LD50 [2] |
| --- | --- | --- | --- | --- | --- | --- | --- | --- | --- | --- | --- | --- | --- | --- | --- |
| CC(CCc1ccc(O)cc1)NCCc1ccc(O)c(O)c1 (single isomer, unassigned) [l-, l-3,4-dihydroxy-N-[3-(4-hydroxyphenyl)-1-methyl-n-propyl]-β-phenethylamine hydrochloride] | somewhat less active than either the d-isomer or dl-racemate on contractile force | marked pressor activity | 9 ± 2 µg/kg/min | 25 ± 5 µg/kg/min | 39 ± 3 mm. Hg. | 8 ± 5 Beats/minute | 63 ± 4 mm. Hg. | 28 ± 9 Beats/minute |  |  |  |  |  |  |  |
| CC(CCc1ccc(O)cc1)NCCc1ccc(O)c(O)c1 (racemic) [dl-, 3,4-dihydroxy-N-[3-(4-hydroxyphenyl)-1-methyl-n-propyl]-β-phenethylamine] |  |  |  |  |  |  |  |  | 3 ± 1 µg/kg/min | 10 ± 3 µg/kg/min | 3 ± 5 mm. Hg. | 13 ± 4 Beats/minute | 6 ± 6 mm. Hg. | 30 ± 4 Beats/minute | 73.2 ± 3.68 mg/kg |
| CC(Cc1ccc(O)c(O)c1)NCCCc1ccc(O)cc1 (racemic) [3,4-dihydroxy-N-[3-(4-hydroxyphenyl)-n-propyl]-α-methyl-β-phenethylamine hydrobromide] |  |  |  |  |  |  |  |  |  |  |  |  |  |  | 82.7 ± 5.72 mg/kg |
| CC(CCc1ccc(O)cc1)NCCc1ccc(O)c(O)c1 (single isomer, unassigned) [d-, d-3,4-dihydroxy-N-[3-(4-hydroxyphenyl)-1-methyl-n-propyl]-β-phenethylamine] |  |  |  |  |  |  |  |  | 2.8 ± .3 µg/kg/min | 6.1 ± .4 µg/kg/min | 8 ± 2 mm. Hg. | 11 ± 3 Beats/minute | 6 ± 3 mm. Hg. | 28 ± 7 Beats/minute |  |
